Results on 10 compounds are retold here after publication PMC6006285, “Specific stereochemistry of OP-1074 disrupts estrogen receptor alpha helix 12 and confers pure antiestrogenic activity” (Nature Communications, 2018).

One experiment deals with AP. Also on record: method as in Holinka et al. As to conditions: ref Holinka et al.; cited from earlier work.
The next experiment concerns uterus. To be noted: cited from earlier work.
Another experiment has as its target T1, ERα (Homo sapiens, UniProt P03372).
T1 construct: endogenous in cells
T1 sequence (P03372 1-595): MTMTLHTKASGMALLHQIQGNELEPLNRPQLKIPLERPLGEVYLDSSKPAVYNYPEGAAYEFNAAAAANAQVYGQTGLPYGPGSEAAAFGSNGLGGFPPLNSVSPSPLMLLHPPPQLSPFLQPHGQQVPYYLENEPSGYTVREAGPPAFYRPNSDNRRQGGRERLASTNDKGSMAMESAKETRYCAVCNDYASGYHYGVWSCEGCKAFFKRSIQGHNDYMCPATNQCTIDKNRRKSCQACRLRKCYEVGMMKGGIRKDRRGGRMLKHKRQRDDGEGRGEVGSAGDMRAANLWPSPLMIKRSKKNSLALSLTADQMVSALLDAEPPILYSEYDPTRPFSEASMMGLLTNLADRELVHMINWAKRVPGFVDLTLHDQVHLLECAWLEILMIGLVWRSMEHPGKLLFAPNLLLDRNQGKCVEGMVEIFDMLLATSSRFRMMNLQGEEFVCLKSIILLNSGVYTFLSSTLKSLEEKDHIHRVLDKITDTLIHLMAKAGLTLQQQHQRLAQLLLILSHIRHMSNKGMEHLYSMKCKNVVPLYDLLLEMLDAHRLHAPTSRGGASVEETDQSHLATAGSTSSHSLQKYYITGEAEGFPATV
Nature of the experiment: ERα protein levels by immunoblotting. In kind it is cell-based. As to conditions: MCF-7 cells, 100 nM ligand, 24 h, means of n experiments ±s.d. On the procedure: However, it is conceivable that under some clinical contexts SERD activity may still be a desirable feature by reducing the number of functional receptors in tumors.
Imaging was performed on FluorChem Imager by Alpha Innotech. […] An uncropped image of the immunoblot is shown in Supplementary Fig. 5.
Background: In western blotting, separated proteins are transferred to a membrane and probed.

Experiment [1] concerns AP activity in Ishikawa uterine cells. Kind of experiment: Alkaline phosphatase (AP) assay, agonist mode (absence of E2). Format: cell-based, human. To be noted: for Induction of AP activity (% E2): Maximum AP activity observed relative to positive control, 500 pM E2, means of n independent experiments ±s.d.; for Maximal AP activity in agonist mode relative to E2 control: absence of E2, normalized to 500 pM E2, representative experiment (Fig. 2a). The method, then:
(§1) Our primary screen to distinguish pure antiestrogens from SERMs was induction of alkaline phosphatase (AP) activity in Ishikawa uterine cells. […] The reference SERM used in our screen was endoxifen (N-desmethyl-4-hydroxytamoxifen), the most abundant bioactive metabolite of tamoxifen.
(§2) Shown is a representative figure analyzed and presented as above.
(§3) At least 4 h later cells were treated with antiestrogens and media was diluted to 2.5% stripped FBS. Cells were incubated for 3 days, media removed and plates frozen at −80 °C. Thawed plates were incubated with a chromogenic substrate of AP, p-nitrophenyl phosphate (ThermoFisher Scientific, #36721), for 40–60 min at 40 °C, and absorbance read at 405 nm on the Varioskan Lux multimodal plate reader (ThermoFisher Scientific, #VLBL00D0).

In experiment [2] the test system is estrogen responsive reporter gene, ERE-tk109-Luc, in MCF-7 cells. Kind of experiment: Inhibition of E2-stimulated transcription of ERE-tk109-Luc reporter gene in MCF-7 cells. In kind it is cell-based. As to conditions: Homo sapiens. (In general: Reporter assays use an easily measured gene product as a stand-in for the process of interest.)
The test system of another experiment is MCF-7 cells. Kind of experiment: Inhibition of E2-stimulated proliferation of MCF-7 cells. In kind it is cell-based. As to conditions: Homo sapiens.
The target of experiment [3] is T2, Estrogen Receptor α LBD (ERα) (Homo sapiens, UniProt P03372).
T2 construct: 2 nM biotinylated Estrogen Receptor α LBD (ERα) was incubated; biotin (biotinylated)
T2 sequence (P03372 311-547 limits assumed): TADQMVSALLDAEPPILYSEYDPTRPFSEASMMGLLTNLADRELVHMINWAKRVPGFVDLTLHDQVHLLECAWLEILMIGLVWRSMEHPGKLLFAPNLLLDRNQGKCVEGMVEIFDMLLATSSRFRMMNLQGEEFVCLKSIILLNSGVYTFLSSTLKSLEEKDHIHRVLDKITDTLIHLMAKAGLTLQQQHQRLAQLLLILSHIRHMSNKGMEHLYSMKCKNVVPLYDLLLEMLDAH
Nature of the experiment: Competitive ligand binding assay with [3H]-E2. To be noted: for IC50: 10 nM [3H]-E2 tracer, 2 nM biotinylated ERα LBD, representative experiment. The method, then: Experimental data points are mean + /− s.e.m. of triplicate samples in a representative experiment. […] Experimental data points are mean + /− s.d. of triplicate samples in a representative experiment
Triplicate reactions were vortexed and 100 μL was added in triplicate to a 96-well streptavidin flashplate (Perkin Elmer #SMP103001PK), which incubated overnight at 4 °C prior to reading.

The test system of experiment [4] is E2-stimulated AP activity in Ishikawa cells. Nature of the experiment: Alkaline phosphatase (AP) assay, antagonist mode (presence of 500 pM E2). As to conditions: for Antagonism of E2-stimulated AP activity: 500 pM E2. Format: cell-based, human. On the procedure: as §1, §2, §3
A further experiment concerns CAMA-1 cells. Kind of experiment: Inhibition of E2-stimulated proliferation of CAMA-1 cells. In kind it is cell-based. As to conditions: Homo sapiens, CAMA-1, 192 h; read-out: CAMA-1 IC50 proliferation (Fig. 3c). The method, then:
Shown is a representative figure analyzed and presented as above. d, Western blot of destabilization of ERα protein by OP-1074.
Proliferation was measured using CyQuant fluorescent DNA-binding dye kit (ThermoFisher Scientific, #C7026) using 1:200 GR dye and reading fluorescence at 485 nm excitation and 538 nm emission on the Varioskan Lux multimodal plate reader.

Experiment [5] deals with uterus of ovariectomized mice. Also on record: method as in PMID 15968821. To be noted: cited from earlier work.
Another experiment relates to MCF7/HER2/neu tumors. On the procedure: MCF7/HER2/neu cells were grown in culture and implanted into 6–7 week athymic ovariectomized female nu/nu mice (Taconic Biosciences). To stimulate tumor growth, 0.18 mg estradiol 90 day release pellets (Innovative Research) were implanted along with cells. […] Tumor volume and bodyweight were measured twice weekly. At end of the study animals were euthanized, tumors resected and snap frozen in liquid nitrogen, and uteri were resected, weighed, and fixed in 10% formalin.

Setting [6] is: MCF7, 24 h, read-out: IC50 transcription.
Where [7] appears, read: MCF7, read-out: IC50 proliferation.
The mark [8] stands for this setting: MCF7, 22 h, read-out: IC50 inhibition of E2-stimulated transcription (Fig. 3a).
The mark [9] stands for this setting: MCF7, 168 h, read-out: MCF-7 IC50 proliferation (Fig. 3b).
Where [10] appears, read: number of 10 tumors at end of study, OP-1074 100 mg/kg oral twice daily, fulvestrant 100 mg/kg subcutaneous daily.

Each structure is given as a SMILES string. Where “and” joins values, the source holds several entries; their conditions need not be identical. Identical values can stand only once. Like-named read-outs stand apart in the source and are kept apart here.

`CC/C(=C(\c1ccc(O)cc1)c1ccc(OCCN(C)C)cc1)c1ccccc1` [4-OHT, (Z)-4-trans-hydroxytamoxifen]: the “Activation of AP” value with AP is 1.3 fold.

Consider `CC/C(=C(/c1ccc(/C=C/C(=O)O)cc1)c1ccc2[nH]ncc2c1)c1ccc(F)cc1Cl` [GDC-0810], for which the “Agonist effects in the uterus” value with uterus is given as “mild to moderate agonist effects in the uterus”.

Take `CC1=C(c2ccc(O)cc2)C(c2ccc(OCCN3CCC[C@H]3C)cc2)Oc2cc(O)ccc21` (some centres unmarked) [OP-1039]: the “Relative ERα protein levels (% vehicle)” value at ERα was 119% ± 13 (n = 6) % vehicle. In addition, in experiment [1], the “Induction of AP activity (% E2)” value is 49% ± 18 (n = 8) % E2. Besides, the IC50 in experiment [2] (setting [6]) amounted to 0.5 ± 0.1 nM; with MCF-7 cells (setting [7]), 6.4 ± 1 nM.

Turning to `CC1=C(c2ccc(O)cc2)C(c2ccc(OCCN3CCC[C@@H]3C)cc2)Oc2cc(O)ccc21` (some centres unmarked) [OP-1047], the “Relative ERα protein levels (% vehicle)” value at ERα was 319% ± 100 (n = 5) % vehicle. The “Induction of AP activity (% E2)” value in [1] is recorded as 136% ± 15 (n = 4) % E2. The IC50 was determined as 1.3 ± 0.4 nM in [2] (setting [6]) and 5.5 ± 1.4 nM in the experiment with MCF-7 cells (setting [7]).

`CC1=C(c2ccc(O)cc2)[C@H](c2ccc(OCCN3CC[C@H](C)C3)cc2)Oc2cc(O)ccc21` [OP-1154]: at ERα, the “Relative ERα protein levels (% vehicle)” value is given as 123% ± 22 (n = 4) % vehicle. Further, the “Maximal AP activity in agonist mode relative to E2 control” value in experiment [1] (3 days) was found to be 39%. Besides, in experiment [1], the “Induction of AP activity (% E2)” value is 40% ± 6.5 (n = 3) % E2. Besides, the IC50 was 14.3 ± 0.06 nM in [3]; 4 nM in [2] (setting [8]); 5.6 ± 2.1 nM in experiment [2] (setting [6]); 8.1 nM in the experiment with CAMA-1 cells; 6.9 nM with MCF-7 cells (setting [9]); 6 ± 1.1 nM with MCF-7 cells (setting [7]). For the same compound, the “Binding affinity relative to OP-1074 and OP-1156 (fold lower)” value in experiment [3] ([3H]-E2 competitive binding) is “approximately 2 fold”. Also, in experiment [4] (Ishikawa cells), the “Antagonism of E2-stimulated AP activity” value is on record as “did not completely antagonize E2-stimulated AP activity”.

As to `CC1=C(c2ccc(O)cc2)[C@H](c2ccc(OCCN3CCCC3)cc2)Oc2cc(O)ccc21` [OP-1156], the “Relative ERα protein levels (% vehicle)” value at ERα is 152% ± 31 (n = 4) % vehicle. The Uterine wet weight result in experiment [5] is on record as “increased uterine wet weight”. Also, the “Maximal AP activity in agonist mode relative to E2 control” value in experiment [1] (3 days) amounted to 40%. Moreover, the “Induction of AP activity (% E2)” value in experiment [1] is 40% ± 7.8 (n = 3) % E2. In addition, the IC50 is 6 nM and 6.13 nM in experiment [3]; 4 nM in experiment [2] (setting [8]); 5.9 ± 2.1 nM in experiment [2] (setting [6]); 4.2 nM in the experiment on CAMA-1 cells; 6.3 nM with MCF-7 cells (setting [9]); 5.2 ± 1.3 nM in the experiment with MCF-7 cells (setting [7]).

Take `CCNCCc1ccc(CN(CC)c2cc(OC)ccc2[C@@H]2CCc3cc(O)ccc3C2)cc1` [RAD1901]: in the experiment on uterus, the “Agonist effects in the uterus” value is recorded as “mild to moderate agonist effects in the uterus”.

On to `CC/C(=C(\c1ccc(O)cc1)c1ccc(OCCNC)cc1)c1ccccc1` [endoxifen, (Z)-4-hydroxy-N-desmethyltamoxifen, reference compound], for which, at ERα, the “Relative ERα protein levels (% vehicle)” value is 139% ± 34 (n = 20) % vehicle. Also, the “Maximal AP activity in agonist mode relative to E2 control” value in experiment [1] (3 days) turned out to be 82%. Besides, the “Induction of AP activity (% E2)” value in experiment [1] is listed as 73% ± 10 (n = 8) % E2. Further, the IC50 was 6.3 ± 1.3 nM in experiment [2] (setting [6]) and 13 ± 2.2 nM with MCF-7 cells (setting [7]). Further, the “AP activity remaining in antagonist mode” value in [4] (Ishikawa cells, 500 pM E2, 1 µM drug) was 58%.

Take `C[C@]12CC[C@@H]3c4ccc(O)cc4C[C@@H](CCCCCCCCC[S+]([O-])CCCC(F)(F)C(F)(F)F)[C@H]3[C@@H]1CC[C@@H]2O` (some centres unmarked) [fulvestrant, reference compound]: in the experiment with MCF7/HER2/neu tumors (setting [10]), the “Tumors shrunk / growth inhibited by >50%” value is given as 5/10. Further, the “Tumors shrunk >80%” value in the experiment on MCF7/HER2/neu tumors (setting [10]) was 1/10. Also, in experiment [1] (3 days, absence of E2, all doses tested), the “AP activity in agonist mode” value is recorded as “lacked any AP activity”. Also, the “Induction of AP activity (% E2)” value in experiment [1] is given as 0.05% ± 2.7 (n = 58) % E2. In addition, the IC50 in experiment [2] (setting [8]) was 6.3 nM; in [2] (setting [6]), 2 ± 0.2 nM; in experiment [4] (Homo sapiens, Ishikawa, 72 h, read-out: IC50 inhibition of E2-stimulated AP activity) it was 3 nM; in the experiment on CAMA-1 cells, 1.9 nM; in the experiment on MCF-7 cells (setting [9]), 2.2 nM; in the experiment on MCF-7 cells (setting [7]) it was 2.5 ± 0.3 nM. For the same compound, the “Antagonism of E2-stimulated AP activity” value in experiment [4] (Ishikawa cells) is recorded as “completely inhibited E2-stimulated AP activity”.

As for `CC/C(=C(\c1ccccc1)c1ccc(OCCN(C)C)cc1)c1ccccc1` [tamoxifen, reference compound], the “Tumors shrunk below the initial tumor size” value with MCF7/HER2/neu tumors (end of study, 100 mg/kg tamoxifen daily by oral gavage) was “half”.
